The structures appear in SMILES notation. Structures can show the parent of a compound that is named as a salt.

Data set [1] addresses GSK3β (Homo sapiens, UniProt P49841). As to the kind of experiment: Inhibitory activity against GSK3β (33P-ATP phosphorylation of prephosphorylated GS1 peptide, two protocols). Type of data set: biochemical. The note with it: first or second protocol not specified. The procedure:
Two different protocols can be used.
In a first protocol: 7.5 μM of prephosphorylated GS1 peptide and 10 μM ATP (containing 300,000 cpm of 33P-ATP) were incubated in 25 mM Tris-HCl, pH 7.5, 0.6 mM DTT, 6 mM MgCl2, 0.6 mM EGTA, 0.05 mg/ml BSA buffer for 1 hour at room temperature in the presence of GSK3beta (total reaction volume: 100 microliters).
In a second protocol: 4.1 μM of prephosphorylated GS1 peptide and 42 μM ATP (containing 260,000 cpm 33P-ATP) were incubated in 80 mM Mes-NaOH, pH 6.5, 1 mM Mg acetate, 0.5 mM EGTA, 5 mM 2-mercaptoethanol, 0.02% Tween 20, 10% glycerol buffer for 2 hours at room temperature in the presence of GSK3beta. Inhibitors were solubilized in DMSO (final solvent concentration in the reaction medium, 1%).
The reaction was stopped with 100 microliters of a solution made of 25 g polyphosphoric acid (85% P2O5), 126 ml 85% H3PO4, H2O to 500 ml and then diluted to 1:100 before use. An aliquot of the reaction mixture was then transferred to Whatman P81 cation exchange filters and rinsed with the solution described above. Incorporated 33P radioactivity was determined by liquid scintillation spectrometry.
The phosphorylated GS-1 peptide had the following sequence NH2-[…](P)EDEE-COOH. (Woodgett, J. R. (1989) Analytical Biochemistry 180, 237-241.

Chain of GSK3β (P49841 whole entry): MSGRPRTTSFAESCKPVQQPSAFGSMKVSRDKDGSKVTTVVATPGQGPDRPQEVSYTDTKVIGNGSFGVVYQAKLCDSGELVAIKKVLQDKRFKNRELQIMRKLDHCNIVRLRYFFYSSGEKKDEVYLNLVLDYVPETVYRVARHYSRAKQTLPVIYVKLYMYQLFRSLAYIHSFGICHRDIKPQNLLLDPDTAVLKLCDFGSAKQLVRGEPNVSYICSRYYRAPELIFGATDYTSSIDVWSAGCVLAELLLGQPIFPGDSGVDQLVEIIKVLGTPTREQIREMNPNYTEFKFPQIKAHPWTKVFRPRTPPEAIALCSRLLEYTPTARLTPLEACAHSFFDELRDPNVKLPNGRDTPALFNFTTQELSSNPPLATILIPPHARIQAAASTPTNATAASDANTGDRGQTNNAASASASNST

The term melting point denotes the temperature, or range, at which the solid turns liquid. Compound `O=C(CN1c2nc(-c3ccncc3)cc(=O)n2CCC1C1CCNCC1)c1cccc(Br)c1` (racemic) (as salt: hydrochloride) [compound 8, (−)9-[2-Oxo-2-(3-bromo-phenyl)ethyl]-8-(4-piperidinyl)-2-(4-pyridinyl)-6,7,8,9-tetrahydro-4H-pyrimido[1,2-a]pyrimidin-4-one] returned a melting point of 255 to 257 °C.
For orientation: IC50 means the concentration at which inhibition is half-maximal. In data set [1], `O=C(CN1c2nc(-c3ccncc3)cc(=O)n2CCC1C1CCNCC1)c1ccccc1` (racemic) [Compound No. 3, (+/−)-9-(2-Oxo-2-phenylethyl)-8-(4-piperidinyl)-2-(4-pyridinyl)-6,7,8,9-tetrahydro-4H-pyrimido[1,2-a]pyrimidin-4-one] yielded an IC50 of 12 nM.
`COc1cc(F)ccc1CCN1c2nc(-c3ccncc3)cc(=O)n2CCC1C1CCNCC1` (racemic) [compound 7, (+/−)9-[2-(4-fluoro-2-methoxy-phenyl)ethyl]-8-(4-piperidinyl)-2-(4-pyridinyl)-6,7,8,9-tetrahydro-4H-pyrimido[1,2-a]pyrimidin-4-one] displayed a melting point of 270 to 272 °C.
